“Also recorded” adds a separate entry of the source.
Columns and labels:
EW8 cells = assay: DOXO response of Ewing sarcoma cell line; type: cell-based; settings: high-NEU1 cells
Description: (§1) We, therefore, characterized other tumor cell lines, in terms of their invasive potential and NEU1 status. We chose the Ewing sarcoma cell lines, EW8 and SKNEP1, for their divergent NEU1 levels. Similar to the RMS cell lines, the low-NEU1 SKNEP1 cells accumulated oversialylated LAMP1, were resistant to DOXO, and more successfully invaded matrigel and peritoneal basement membranes than did the high-NEU1 DOXO-sensitive EW8 cells (data not shown). We also analyzed the colon carcinoma cell lines, SW480 and SW620, because of their well-characterized derivation (Leibovitz et al., 1976): SW480 cells are from a primary colon carcinoma; SW620 cells are from a metastatic recurrence. […] This was also paralleled by a drastic increase in LAMP1 levels compared to that in SW480 (data not shown).

SKNEP1 cells = assay: DOXO response of Ewing sarcoma cell line; type: cell-based; settings: low-NEU1 cells
Description: as §1

RH30 cells = assay: Doxorubicin efflux assay; type: cell-based, human; settings: 3 μg/mL DOXO for 2 hours, then DOXO-free medium for 2 hours
Description: Cells were plated and maintained at 50% confluency. The next day, they were treated with medium containing 3 μg/mL DOXO for 2 hours. Treated cells were then washed 3 times with PBS and cultured in DOXO-free medium for an additional 2 hours, to allow efflux of the drug into fresh medium. The conditioned medium was then centrifuged at 1000 rpm […] for 5 minutes and a 500 μL aliquot was spun through an ULTRAFREE-MC 0.1 μm Eppendorf centrifugal filter (Millipore) to capture the effluxed drug. The filter was then placed on a microscopic slide and images of the red fluorescence filter were taken on a Nikon Cl microscope.

RH41^shNEU1 cells = assay: DOXO dose response, apoptotic response (cleaved PARP immunoblot); type: cell-based, human; settings: compared with corresponding unmodified cells
Description: (§2) Finally, we generated DOXO dose response curves in both parental cell lines and the modified lines to examine the differences in their apoptotic responses. Immunoblots of the cleaved poly (ADP-ribose) polymerase (PARP), a canonical apoptotic marker, were used for this purpose (data not shown).
(§3) RH30 cells were transduced with the pBABE-puro retroviral vector (AddGene), either unmodified or containing the human NEU1 cDNA. Transduced cells were selected with puromycin (2 μg/mL), according to the predetermined sensitivity of the cell line, and were maintained in 0.5 μg/mL selection medium. RH41 cells were transfected with a panel of NEU1 shRNA plasmids (RHS4533-NM000434, Open Biosystems) or the accompanying empty vector control. The cells were selected with puromycin and maintained under selection medium.

RH30^NEU1 cells = assay: as above; type: cell-based, human; settings: compared with unmodified controls
Description: as §2, §3

RH41 cells = assay: Doxorubicin exposure, apoptotic response (cleaved PARP immunoblot); type: cell-based, human; settings: parental RH41 cells, high NEU1

For `COc1cccc2c1C(=O)c1c(O)c3c(c(O)c1C2=O)C[C@@](O)(C(=O)CO)C[C@@H]3O[C@H]1C[C@H](N)[C@H](O)[C@H](C)O1` [doxorubicin], the “response to DOXO” value (EW8 cells) was “sensitive”, the “response to DOXO” value (SKNEP1 cells) was “resistant” and the “efflux of DOXO into culture medium (red fluorescence)” value (RH30 cells) was “released from these cells”. The “apoptotic response to DOXO” value (RH41^shNEU1 cells) was “more resistant to apoptosis”, the “apoptotic response to DOXO” value (RH30^NEU1 cells) was “more sensitive” and the “response to doxorubicin (apoptosis)” value (RH41 cells) was “highly susceptible; also recorded: readily apoptosed”.

Reference: patent US12640251B2, “Methods of treating dementia associated with alzheimer's disease with protective protein/cathepsin A (PPCA)” (St. Jude Children's Research Hospital, priority 2011, dated 2026)
